According to ChEMBL document CHEMBL4373743, “Selective apoptosis-inducing activity of synthetic hydrocarbon-stapled SOS1 helix with d-amino acids in H358 cancer cells expressing KRASG12C” (Eur J Med Chem, 2020):
pKd: −log10 of the molar value. Calls of active or inactive are those of the source. No cut-off for these calls is given here. Bridge positions count the residues as written; N and C are the ends. Square brackets hold non-standard residues; d marks the D form. Peptide text beside a SMILES is read from it. S5 = C=CCCC[C@](C)(N)C(=O)O

Legend:
[1] = target: GTPase KRas (Homo sapiens, UniProt P01116, G12C); experiment: Binding affinity to biotinylated N-terminal His6-tagged recombinant KRAS G12C mutant (unknown origin) by BLI method
Chain of GTPase KRas (P01116 whole entry G12C): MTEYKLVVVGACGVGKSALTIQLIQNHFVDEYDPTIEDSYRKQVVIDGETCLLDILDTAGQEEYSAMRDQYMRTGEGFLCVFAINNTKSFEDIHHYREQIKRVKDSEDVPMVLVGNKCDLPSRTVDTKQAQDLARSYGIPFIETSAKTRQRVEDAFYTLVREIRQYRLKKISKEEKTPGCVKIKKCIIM

[2] = test system: GTPase KRas (Homo sapiens), P01116 [G12C]; experiment: Binding affinity to biotinylated N-terminal His6-tagged recombinant KRAS G12C mutant (unknown origin) assessed as association constant by BLI method
Chain of GTPase KRas (Homo sapiens), P01116 [G12C] (P01116 whole entry G12C): as above

[3] = test system: GTPase KRas (Homo sapiens), P01116 [G12C]; experiment: Binding affinity to biotinylated N-terminal His6-tagged recombinant KRAS G12C mutant (unknown origin) assessed as dissociation constant by BLI method
[4] = test system: NCI-H358; experiment: Antiproliferative activity against human NCI-H358 cells harboring KRAS G12C mutant incubated for 24 hrs by MTT assay; assay type: functional, cell-based
[5] = test system: A549; experiment: Antiproliferative activity against human A549 cells harboring KRAS G12S mutant at 0.37 to 10 uM incubated for 24 hrs by MTT assay; assay type: functional, cell-based
[6] = test system: GTPase KRas (Homo sapiens), P01116 [G12C]; experiment: Inhibition of mant-GDP bound N-terminal His6-tagged recombinant KRAS G12C mutant (unknown origin) by fluorescence based assay

Row | pKd [1] | Ka [2] [×10³ /M.s] | Kdiss [3] | inhibition [6] | SMILES | Activity [4] | Activity [5]
1 | 5.49 | 3.73 | 1.19 ×10⁻² /s | – | CC[C@H](C)[C@H](NC(=O)CNC(=O)[C@H](Cc1ccccc1)NC(=O)[C@H](Cc1ccccc1)NC(=O)[C@H](CCCNC(=N)N)NC(=O)[C@H](CCCNC(=N)N)NC(C)=O)C(=O)N[C@@]1(C)CCC/C=C\CCC[C@@](C)(C(=O)N[C@@H](CC(C)C)C(=O)N[C@@H](CCCCN)C(=O)N[C@H](C(=O)N[C@@H](CCC(=O)O)C(=O)N[C@@H](CCC(=O)O)C(=O)NCC(=O)N[C@@H](CC(N)=O)C(=O)O)[C@@H](C)O)NC(=O)[C@H](CC(N)=O)NC(=O)[C@H]([C@@H](C)O)NC(=O)[C@H](CC(=O)O)NC(=O)[C@H](CC(C)C)NC1=O (Ac-RRFFGI[S5]LDTN[S5]LKTEEGN-OH; staple (Z) 7-12) | – | –
2 | 5.06 | 4.62 | 4.07 ×10⁻² /s | – | CC[C@H](C)[C@H](NC(=O)CNC(=O)[C@H](Cc1ccccc1)NC(=O)[C@H](Cc1ccccc1)NC(=O)[C@H](CCCNC(=N)N)NC(=O)[C@H](CCCNC(=N)N)NC(C)=O)C(=O)N[C@@]1(C)CCC/C=C\CCC[C@@](C)(C(=O)N[C@@H](CC(C)C)C(=O)N[C@@H](CCCCN)C(=O)N[C@H](C(=O)N[C@@H](CCC(=O)O)C(=O)N[C@@H](CCC(=O)O)C(=O)NCC(=O)N[C@@H](CC(N)=O)C(=O)O)[C@@H](C)O)NC(=O)[C@H](CC(N)=O)NC(=O)[C@H](CC(=O)O)NC(=O)[C@H]([C@@H](C)O)NC(=O)[C@H](CC(C)C)NC1=O (Ac-RRFFGI[S5]LTDN[S5]LKTEEGN-OH; staple (Z) 7-12) | – | –
3 | 4.32 | 2.44 | 1.17 ×10⁻¹ /s | Dose-dependent effect | CC[C@H](C)[C@H](NC(=O)CNC(=O)[C@H](Cc1ccccc1)NC(=O)[C@H](Cc1ccccc1)NC(=O)[C@H](CCCNC(=N)N)NC(=O)[C@H](CCCNC(=N)N)NC(C)=O)C(=O)N[C@@]1(C)CCC/C=C\CCC[C@@](C)(C(=O)N[C@@H](CC(C)C)C(=O)N[C@@H](CCCCN)C(=O)N[C@H](C(=O)N[C@@H](CCC(=O)O)C(=O)N[C@@H](CCC(=O)O)C(=O)NCC(=O)N[C@@H](CC(N)=O)C(=O)O)[C@@H](C)O)NC(=O)[C@H](CC(N)=O)NC(=O)[C@H]([C@@H](C)O)NC(=O)[C@H](CC(C)C)NC1=O | Dose-dependent effect | inactive
4 | 4.58 | 6.65 | 1.73 ×10⁻¹ /s | – | CC[C@H](C)[C@H](NC(=O)CNC(=O)[C@H](Cc1ccccc1)NC(=O)[C@H](Cc1ccccc1)NC(=O)[C@H](CCCNC(=N)N)NC(=O)[C@H](CCCNC(=N)N)NC(C)=O)C(=O)N[C@@]1(C)CCC/C=C\CCC[C@@](C)(C(=O)N[C@@H](CC(C)C)C(=O)N[C@@H](CCCCN)C(=O)N[C@H](C(=O)N[C@@H](CCC(=O)O)C(=O)N[C@@H](CCC(=O)O)C(=O)NCC(=O)N[C@@H](CC(N)=O)C(=O)O)[C@@H](C)O)NC(=O)[C@H](CC(N)=O)NC(=O)[C@H]([C@@H](C)O)NC(=O)[C@H](CC(C)C)NC(=O)[C@H](CC(=O)O)NC1=O (Ac-RRFFGI[S5]DLTN[S5]LKTEEGN-OH; staple (Z) 7-12) | – | –
